Target: T1, H. pylori arginase (RocF) (Helicobacter pylori, UniProt O25949)
T1 construct: gene HP_1399
T1 sequence (O25949 entry or part of it): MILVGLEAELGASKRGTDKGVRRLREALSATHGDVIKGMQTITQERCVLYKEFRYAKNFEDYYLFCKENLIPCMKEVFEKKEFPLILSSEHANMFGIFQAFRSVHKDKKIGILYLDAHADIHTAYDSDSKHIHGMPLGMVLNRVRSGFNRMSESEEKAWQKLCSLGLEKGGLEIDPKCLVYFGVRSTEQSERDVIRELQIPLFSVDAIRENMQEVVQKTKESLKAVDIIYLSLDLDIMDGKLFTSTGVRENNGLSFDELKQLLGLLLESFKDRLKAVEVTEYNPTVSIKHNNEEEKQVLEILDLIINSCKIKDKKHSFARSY

`N=C(N)NCCC[C@H](N)C(=O)O` [L-arginine] was tested, and the “L-ornithine formation by acidified ninhydrin, 515 nm” value was “With E. coli (pBS-rocF), optimal arginase activity was with cobalt”.
